Data as given in EP0511033A1, “Extracts of the common lady's mantle, their preparation and their applications” (SYNTHELABO, priority 1991, dated 1992).

Columns and labels:
[1] = Superoxide anion scavenging test (NADH/PMS generation, NBT reduction to diformazan, spectrophotometry); type: biochemical; details: for concentration donnant 90 % d'inhibition: 90 % inhibition of diformazan coloration
From the text: On a également testé l'activité anti-radicalaire sur l'anion superoxyde généré par la réaction de NADH (nicotinamide adénine dinucléotide hydrate) sur le PMS (phénazine méthosulfate). L'anion superoxyde provoque la réduction du NBT (Nitrobleu de Tétrazolium) en diformazan, de coloration bleu intense. On dose celui-ci par spectrophotométrie (Roback J., Gryglewski RJ., Biomedical Pharmacology, 1988, 37, (5), P. 837-841). On exprime l'activité anti-radicalaire d'une substance en pourcentage d'inhibition du développement de coloration due au diformazan. Par cette méthode de dosage, les extraits d'Alchemille présentent une activité bien supérieure aux 2 témoins testés, qui sont la quercétine et l'acide rosmarinique. Ainsi, on obtient 90 % d'inhibition avec des concentrations respectivement de 0,5 mg/ml d'acide rosmarinique et de quercétine, alors qu'on atteint ce niveau d'inhibition à une concentration de 0,1 mg/ml d'extrait aqueux d'Alchemille. Cet extrait est donc, dans ces conditions, 5 fois plus actif que les 2 témoins qui sont les plus actifs parmi les substances testées.

[2] = Free radical scavenging test on diphénylpicrylhydrazyl hydrate (decrease of absorbance at 513 nm); type: biochemical
From the text: Les extraits d'Alchemille obtenus selon l'invention présentent également des activités anti-radicalaires. On a démontré ces activités in vitro par deux méthodes de dosage. On a réalisé la première méthode de dosage sur un radical libre : le diphénylpicrylhydrazyl hydrate qui absorbe dans le violet à 513 nm. (Lamaison JL., Petitjean-Freytet C., Carnat P., Carnat A., 1988, Plantes Médicinales et Phytothérapie, 22, (4), p. 231-234). Un composé anti-radicalaire, piégeur des radicaux libres, entraîne une inhibition d'apparition de coloration du radical libre témoin, donc une diminution de la densité optique de ce radical libre. L'activité anti-radicalaire d'une substance s'exprime par la diminution du pourcentage d'absorbance du radical libre testé.Dans ces conditions de test, un extrait d'Alchemille obtenu selon l'invention présente une activité similaire à la vitamine E qui est la substance de référence la plus utilisée.

| Molecule | concentration donnant 90 % d'inhibition [1] | INHIBITION % ([1]; concentration 0,01 mg/ml) [%] | INHIBITION % ([1]; concentration 0,1 mg/ml) [%] | INHIBITION % ([1]; concentration 0,05 mg/ml) [%] | INHIBITION % ([1]; concentration 0,5 mg/ml) [%] | INHIBITION % ([1]; concentration 1 mg/ml) [%] | activité anti-radicalaire (comparison in words) ([2]; compared with vitamine E) | INHIBITION % ([2]; concentration 0,01 mg/ml) [%] | INHIBITION % ([2]; concentration 0,1 mg/ml) [%] | INHIBITION % ([2]; concentration 0,05 mg/ml) [%] | INHIBITION % ([2]; concentration 0,5 mg/ml) [%] | INHIBITION % ([2]; concentration 1 mg/ml) [%] |
| --- | --- | --- | --- | --- | --- | --- | --- | --- | --- | --- | --- | --- |
| O=C(/C=C/c1ccc(O)c(O)c1)O[C@H](Cc1ccc(O)c(O)c1)C(=O)O [Acide rosmarinique] | 0,5 mg/ml | 2 | 59 | 28 | 90 | 99 |  |  |  |  |  |  |
| O=C(/C=C/c1ccc(O)c(O)c1)OC1CC(OC(=O)/C=C/c2ccc(O)c(O)c2)(C(=O)O)CC(O)C1O (centres unmarked) [Cynarine] |  |  |  |  |  |  | activité légèrement supérieure à la vitamine E | 16 | 89 | 60 | 94 | 96 |
| O=c1c(O)c(-c2ccc(O)c(O)c2)oc2cc(O)cc(O)c12 [Quercétine] | 0,5 mg/ml | 1 | 69 | 31 | 91 | 98 |  |  |  |  |  |  |
| Vitamine E |  |  |  |  |  |  |  | 9 | 61 | 28 | 95 | 96 |
